The values that follow come from US12187721B2, “Protein tyrosine phosphatase inhibitors” (Array BioPharma Inc., priority 2018, dated 2025).

For experiment [1], the target named is T1, full-length SHP2 (His6-tagged SHP2(2-527)) (Homo sapiens, UniProt Q06124).
T1 construct: His6-tagged SHP2(2-527); His6; made in house; host or cells: E. coli
As to the kind of experiment: SHP2 Enzymatic Assay (fluorescence intensity kinetic assay, DiFMUP hydrolysis). The experiment is classed as biochemical. The method in brief:
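1 nM His6-SHP2(2-527), activated by 1 μM bis-phosphopeptide, hydrolysed 50 μM DiFMUP in 25 mM HEPES pH 7.4 with 1 mM DTT, 50 mM KCl and 2% DMSO. DiFMU fluorescence (Ex 355/Em 460 nm) was read kinetically for 15 min at ambient temperature.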

Experiment [2] deals with ERK1/2 (Thr202/Tyr204) phosphorylation in KYSE520 cells. As to the kind of experiment: Cellular Phospho-p44/42 MAPK (Erk 1/2) (Thr202/Tyr204) Assay (In-Cell Western). The experiment is classed as cell-based. To be noted: Homo sapiens, KYSE-520, 1 h, read-out: Biological Example 2 IC50 (nM). As to the method: KYSE520 cells were obtained from DSMZ and grown in RPMI supplemented with 10% fetal bovine serum, pennicillin/streptomycin, 2 mM L-alanyl-L-glutamine dipeptide in 0.85% NaCl (Glutamax™), non-essential amino acids, and sodium pyruvate. Cells were plated in 96-well plates at 30,000 cells/well and allowed to attach overnight at 37° C./5% CO2. Cells were treated with compounds prepared as a 10-point, 1:3 dilution series (range: 20 μM-1 nM), with a final DMSO concentration of 0.5%. After 1 hour incubation, cells were fixed in 3.7% formaldehyde in Dulbecco's phosphate-buffered saline (“dPBS”) at room temperature for 20 minutes. Cells were then washed with dPBS and permeabilized in 100% MeOH at room temperature for 10 minutes. Following permeabilization, cells were washed in dPBS and incubated in LI-COR Blocking Buffer (LI-COR Biosciences, Cat #927-40000) for 1 hour or longer. Plates were then incubated with an antibody specific for the MEK-dependent ERK1/2 phosphorylation sites, threonine 202 and tyrosine 204 (Cell Signaling Technologies; Cat #9101), downstream of SHP2 in the MAP kinase signal transduction pathway, as well as GAPDH (Millipore; Cat #MAB374). pErk1/2 (Thr202/Tyr204) antibody was diluted in LI-COR blocking buffer containing 0.05% polysorbate-20 (Tween-20) at 1:250; GAPDH was diluted at 1:2,500. The plates were incubated overnight at 4° C. After washing with PBS/0.05% Tween-20, the cells were incubated with fluorescently-labeled secondary antibodies (Anti-rabbit-Alexa Flour680, Invitrogen Cat #A21109; Anti-mouse-IRDye800CW, Li-cor Bioscieces Cat #926-32210, both at 1:1000 dilution) for 1 hour. Cells were then washed, as above, and analyzed for fluorescence at both 680 nm and 800 nm wavelengths using the Aerius Infrared Imaging System (LI-COR Biosciences, Model 9250). Phosphorylated Erk1/2 (Thr202/Tyr204) signal was normalized to GAPDH signal for each well. IC50 values were calculated from the normalized values using a 4-parameter fit in BioAssay software. […] The reported IC50 in Table 2 may be from a single assay or the mean of multiple assays.

For orientation: IC50 means the concentration needed to halve the response being measured.

T1 sequence (Q06124 2-527): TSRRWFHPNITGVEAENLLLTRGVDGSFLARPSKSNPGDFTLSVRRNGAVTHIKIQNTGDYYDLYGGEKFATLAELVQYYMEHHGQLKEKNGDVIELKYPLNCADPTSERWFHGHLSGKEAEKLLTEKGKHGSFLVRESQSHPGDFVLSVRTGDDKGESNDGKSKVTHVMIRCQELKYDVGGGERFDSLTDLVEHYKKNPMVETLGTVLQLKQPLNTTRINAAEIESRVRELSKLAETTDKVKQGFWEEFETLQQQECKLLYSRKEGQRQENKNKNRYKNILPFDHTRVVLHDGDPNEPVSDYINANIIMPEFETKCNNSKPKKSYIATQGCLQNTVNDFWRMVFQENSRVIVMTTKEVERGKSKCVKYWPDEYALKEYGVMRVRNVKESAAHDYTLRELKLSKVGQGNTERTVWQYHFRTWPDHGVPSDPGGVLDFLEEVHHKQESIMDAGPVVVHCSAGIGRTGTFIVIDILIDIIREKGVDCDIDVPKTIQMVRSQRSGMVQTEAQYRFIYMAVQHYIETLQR

As to `C[C@@H]1OCC2(CCN(c3cnc4nc(Sc5ccnc6[nH]ccc56)ccc4n3)CC2)[C@@H]1N` [Example 189, (3S,4S)-8-(6-((1H-pyrrolo[2,3-b]pyridin-4-yl)thio)pyrido[2,3-b]pyrazin-2-yl)-3-methyl-2-oxa-8-azaspiro[4.5]decan-4-amine], the values for the 50% inhibitory concentration (IC50) in experiment [1] and in experiment [2] were 0.059 µM and 98 nM, respectively.

Regarding `Nc1nccc(Sc2ccc3nc(N4CC5CC(C4)N5)cnc3n2)c1Cl` [Example 200, 4-((2-(3,6-diazabicyclo[3.1.1]heptan-3-yl)pyrido[2,3-b]pyrazin-6-yl)thio)-3-chloropyridin-2-amine], the IC50 was 0.048 µM in experiment [1] and 122 nM in experiment [2].

For the molecule `N[C@@H]1c2cccnc2CC12CCN(c1cnc3nc(Sc4ccnc(N5CC[C@H](CO)C5)c4Cl)ccc3n1)CC2` [Example 210, ((S)-1-(4-((2-((S)-5-amino-5,7-dihydrospiro[cyclopenta[b]pyridine-6,4′-piperidin]-1′-yl)pyrido[2,3-b]pyrazin-6-yl)thio)-3-chloropyridin-2-yl)pyrrolidin-3-yl)methanol], the IC50 was found to be 0.063 µM in experiment [1] and 16 nM in experiment [2].
